# Assay results reported in patent US9370515B2, “Mixed lineage kinase inhibitors and method of treatments” (CALIFIA BIO, INC., priority 2013, dated 2016).
# Molecular target: MLK-3 (Homo sapiens, UniProt Q16584)
# Experiment: Biochemical assay for the inhibition of kinase activity for MLK-3 (33P-ATP, HOTSPOT filter binding)
# Settings: activated MLK-3 20 nM, ATP 50 μM, myelin basic protein 20 μM, 20 minutes room temperature
# Procedure: Biochemical Assay for the Inhibition of Kinase Activity for MLK-3: Myelin basic protein (20 μM final concentration) is dissolved in 20 mM Hepes (pH 7.5) containing […], […], 0.02% Brij35, 0.02 mg/ml BSA, 0.1 μM Na3VO4, 2 mM DTT, and 1% DMSO. Activated MLK-3 is added and mixed (20 nM final concentration), and inhibitors are added in DMSO. ^33P-ATP (specific activity 500 μCi/μL) is delivered into the reaction mixture to initiate the reaction (ATP concentration is 50 μM) and the mixture is incubated at room temperature for 20 minutes. % Activity is determined using a proprietary HOTSPOT™ microfluidic filter binding technology. See, Expert Opin. Drug Discov. 2008 June; 3(6): 607-621.
# MLK-3, sequence (Q16584 whole entry): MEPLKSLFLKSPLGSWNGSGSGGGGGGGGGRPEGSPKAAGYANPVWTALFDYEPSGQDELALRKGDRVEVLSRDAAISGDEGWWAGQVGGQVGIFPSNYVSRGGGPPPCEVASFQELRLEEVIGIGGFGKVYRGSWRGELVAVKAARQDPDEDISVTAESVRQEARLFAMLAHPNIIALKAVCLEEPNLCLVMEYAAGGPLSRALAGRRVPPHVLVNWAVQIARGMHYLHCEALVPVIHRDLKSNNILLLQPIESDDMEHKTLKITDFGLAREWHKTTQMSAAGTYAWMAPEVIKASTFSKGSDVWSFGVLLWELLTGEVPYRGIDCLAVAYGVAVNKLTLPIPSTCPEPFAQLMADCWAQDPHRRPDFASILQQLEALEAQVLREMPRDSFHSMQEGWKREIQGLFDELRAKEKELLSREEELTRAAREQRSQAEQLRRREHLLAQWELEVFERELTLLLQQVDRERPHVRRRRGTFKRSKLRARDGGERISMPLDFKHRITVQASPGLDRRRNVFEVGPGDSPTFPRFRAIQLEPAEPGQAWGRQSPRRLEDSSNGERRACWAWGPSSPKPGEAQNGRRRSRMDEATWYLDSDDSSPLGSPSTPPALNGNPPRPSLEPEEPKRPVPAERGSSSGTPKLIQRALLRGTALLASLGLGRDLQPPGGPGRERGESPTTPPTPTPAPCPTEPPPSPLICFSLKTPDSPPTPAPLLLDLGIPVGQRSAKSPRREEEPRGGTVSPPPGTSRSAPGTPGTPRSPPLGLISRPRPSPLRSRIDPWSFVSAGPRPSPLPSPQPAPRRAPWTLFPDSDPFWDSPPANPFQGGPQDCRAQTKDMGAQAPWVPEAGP
row,IC50 [nM],SMILES
1,< 100,"COc1cc2cc(-c3cnc4ccc(N[C@H]5CC[C@H](O)CC5)nn34)sc2c(OC)c1OC [Compound 179, trans-4-(3-(5,6,7-trimethoxybenzo[b]thiophen-2-yl)imidazo[1,2-b]pyridazin-6-ylamino)cyclohexanol]"
2,100 to 500,"COc1ccc(Nc2ccc3ncc(-c4cc5cccnc5s4)n3n2)cc1OC [Compound 204, N-(3,4-dimethoxyphenyl)-3-(thieno[2,3-b]pyridin-2-yl)imidazo[1,2-b]pyridazin-6-amine]"
3,< 5000,"COc1ccc2c(c1)cc(-c1cnc3ccc(Nc4ccc(OC)c(OC)c4)nn13)n2C [Compound 193, 3-(5-methoxy-1-methyl-1H-indol-2-yl)-N-(3,4-dimethoxyphenyl)imidazo[1,2-b]pyridazin-6-amine]"
4,< 100,"COc1cc2cc(-c3cnc4ccc(Nc5ccc(OCCCO)c(OC)c5)nn34)sc2cc1OC [Compound 70, 3-(4-(3-(5,6-dimethoxybenzo[b]thiophen-2-yl)imidazo[1,2-b]pyridazin-6-ylamino)-2-methoxyphenoxy)propan-1-ol]"
5,500 to 1000,"O=c1cc(Nc2ccc3ncc(-c4cc5ccccc5s4)n3n2)cc[nH]1 [Compound 41, 4-(3-(benzo[b]thiophen-2-yl)imidazo[1,2-b]pyridazin-6-ylamino)pyridin-2-ol]"
6,500 to 1000,"COc1ccc(Nc2ccc3ncc(-c4cc5cccc(OC(F)F)c5s4)n3n2)cc1OC [Compound 187, 3-(7-(difluoromethoxy)benzo[b]thiophen-2-yl)-N-(3,4-dimethoxyphenyl)imidazo[1,2-b]pyridazin-6-amine]"
7,< 100,"Cc1cncc2cc(-c3cnc4ccc(N[C@H]5CC[C@H](O)CC5)nn34)sc12 [Compound 215, trans-4-(3-(7-methylthieno[3,2-c]pyridin-2-yl)imidazo[1,2-b]pyridazin-6-ylamino)cyclohexanol]"
8,100 to 500,"COc1ccc(Nc2ccc3ncc(-c4cc5cccc(OC(C)C)c5s4)n3n2)cc1OC [Compound 80, 3-(7-isopropoxybenzo[b]thiophen-2-yl)-N-(3,4-dimethoxyphenyl)imidazo[1,2-b]pyridazin-6-amine]"
9,< 5000,"COc1ccc2c(c1)cc(-c1cnc3ccc(N[C@H]4CC[C@H](O)CC4)nn13)n2C [Compound 194, trans-4-(3-(5-methoxy-1-methyl-1H-indol-2-yl)imidazo[1,2-b]pyridazin-6-ylamino)cyclohexanol]"
10,< 5000,"COc1cc(Nc2ccc3ncc(-c4cc5ccccc5s4)n3n2)ccc1OC(C)C [Compound 30, 3-(benzo[b]thiophen-2-yl)-N-(4-isopropoxy-3-methoxyphenyl)imidazo[1,2-b]pyridazin-6-amine]"
11,100 to 500,"COc1ccc2cc(-c3cnc4ccc(Nc5ccc(OC)c(OC)c5)nn34)sc2c1 [Compound 72, 3-(6-methoxybenzo[b]thiophen-2-yl)-N-(3,4-dimethoxyphenyl)imidazo[1,2-b]pyridazin-6-amine]"
12,100 to 500,"COc1cc(Nc2ccc3ncc(-c4cc5ccccc5s4)n3n2)ccc1O [Compound 24, 4-(3-(benzo[b]thiophen-2-yl)imidazo[1,2-b]pyridazin-6-ylamino)-2-methoxyphenol]"
13,500 to 1000,"COc1cc(Nc2ccc3ncc(-c4cc5ccccc5s4)n3n2)cc(OC)c1OC [Compound 14, 3-(benzo[b]thiophen-2-yl)-N-(3,4,5-trimethoxyphenyl)imidazo[1,2-b]pyridazin-6-amine]"
14,< 100,"COc1ccc(Nc2ccc3ncc(-c4cc5ccncc5s4)n3n2)cc1OC [Compound 218, N-(3,4-dimethoxyphenyl)-3-(thieno[2,3-c]pyridin-2-yl)imidazo[1,2-b]pyridazin-6-amine]"
15,100 to 500,"O=C(O)c1cccc(Nc2ccc3ncc(-c4cc5ccccc5s4)n3n2)c1 [Compound 26, 3-(3-(benzo[b]thiophen-2-yl)imidazo[1,2-b]pyridazin-6-ylamino)benzoic acid]"
16,100 to 500,"COc1ccc2sc(-c3cnc4ccc(N[C@H]5CC[C@H](O)CC5)nn34)cc2c1 [Compound 168, trans-4-(3-(5-methoxybenzo[b]thiophen-2-yl)imidazo[1,2-b]pyridazin-6-ylamino)cyclohexanol]"
17,100 to 500,"CCOc1ccc(Nc2ccc3ncc(-c4cc5cccc(OC)c5s4)n3n2)cc1OC [Compound 181, N-(4-ethoxy-3-methoxyphenyl)-3-(7-methoxybenzo[b]thiophen-2-yl)imidazo[1,2-b]pyridazin-6-amine]"
18,500 to 1000,"OCCNc1ccc2ncc(-c3cc4ccccc4s3)n2n1 [Compound 108, 2-(3-(benzo[b]thiophen-2-yl)imidazo[1,2-b]pyridazin-6-ylamino)ethanol]"
19,< 5000,"Oc1cccc(-c2cnc3ccc(N[C@H]4CC[C@H](O)CC4)nn23)c1 [Compound 101, trans-3-(6-(4-hydroxycyclohexylamino)imidazo[1,2-b]pyridazin-3-yl)phenol]"

row,IC50 [nM],SMILES
1,100 to 500,"COc1ccc2cc(-c3cnc4ccc(N[C@H]5CC[C@H](O)CC5)nn34)[nH]c2c1 [Compound 86, trans-4-(3-(6-methoxy-1H-indol-2-yl)imidazo[1,2-b]pyridazin-6-ylamino)cyclohexanol]"
2,< 100,"COc1cc2cc(-c3cnc4ccc(NCCC(C)CO)nn34)sc2cc1OC (centres unmarked) [Compound 171, 4-(3-(5,6-dimethoxybenzo[b]thiophen-2-yl)imidazo[1,2-b]pyridazin-6-ylamino)-2-methylbutan-1-ol]"
3,100 to 500,"O[C@H]1CC[C@H](Nc2ccc3ncc(-c4cc5cnccc5s4)n3n2)CC1 [Compound 207, trans-(3-(thieno[3,2-c]pyridin-2-yl)imidazo[1,2-b]pyridazin-6-ylamino)cyclohexanol]"
4,< 100,"COc1ccc(Nc2ccc3ncc(-c4cc5cccc(O)c5s4)n3n2)cc1OC [Compound 79, 2-(6-(3,4-dimethoxyphenylamino)imidazo[1,2-b]pyridazin-3-yl)benzo[b]thiophen-7-ol]"
5,500 to 1000,"COc1ccc(Nc2ccc3ncc(-c4cc5ccccc5s4)n3n2)cc1C(=O)O [Compound 43, 5-(3-(benzo[b]thiophen-2-yl)imidazo[1,2-b]pyridazin-6-ylamino)-2-methoxybenzoic acid]"
6,< 5000,"CC(C)CNc1ccc2ncc(-c3ccc4[nH]ccc4c3)n2n1 [Compound 142, 3-(1H-indol-5-yl)-N-isobutylimidazo[1,2-b]pyridazin-6-amine]"
7,< 5000,"OCCN1CCN(c2ccc3ncc(-c4cc5ccccc5s4)n3n2)CC1 [Compound 119, 2-(4-(3-(benzo[b]thiophen-2-yl)imidazo[1,2-b]pyridazin-6-yl)piperazin-1-yl)ethanol]"
8,< 5000,"COC(=O)C1CCCN(c2ccc3ncc(-c4cc5ccccc5s4)n3n2)C1 (centres unmarked) [Compound 131, methyl 1-(3-(benzo[b]thiophen-2-yl)imidazo[1,2-b]pyridazin-6-yl)piperidine-3-carboxylate]"
9,< 5000,"COc1ccc(Nc2ccc3ncc(-c4cc5cccc(OC(F)(F)F)c5s4)n3n2)cc1OC [Compound 188, N-(3,4-dimethoxyphenyl)-3-(7-(trifluoromethoxy)benzo[b]thiophen-2-yl)imidazo[1,2-b]pyridazin-6-amine]"
10,< 100,"COc1ccc(Nc2ccc3ncc(-c4cc5cccc(OC)c5[nH]4)n3n2)cc1OC [Compound 5, 3-(7-methoxy-1H-indol-2-yl)-N-(3,4-dimethoxyphenyl)imidazo[1,2-b]pyridazin-6-amine]"
11,500 to 1000,"Cc1ccc2sc(-c3cnc4ccc(N[C@H]5CC[C@H](O)CC5)nn34)cc2c1 [Compound 192, trans-4-(3-(5-methylbenzo[b]thiophen-2-yl)imidazo[1,2-b]pyridazin-6-ylamino)cyclohexanol]"
12,< 5000,"COc1cc(Nc2ccc3ncc(-c4cc5cccc(OC)c5s4)n3n2)ccc1OC(F)(F)F [Compound 184, N-(3-methoxy-4-(trifluoromethoxy)phenyl)-3-(7-methoxybenzo[b]thiophen-2-yl)imidazo[1,2-b]pyridazin-6-amine]"
13,100 to 500,"COc1ccc2cc(-c3cnc4ccc(Nc5ccc(OC)c(OC)c5)nn34)[nH]c2c1 [Compound 4, 3-(6-methoxy-1H-indol-2-yl)-N-(3,4-dimethoxyphenyl)imidazo[1,2-b]pyridazin-6-amine]"
14,500 to 1000,"O[C@H]1CC[C@H](Nc2ccc3ncc(-c4cc5cc(F)ccc5s4)n3n2)CC1 [Compound 166, trans-4-(3-(5-fluorobenzo[b]thiophen-2-yl)imidazo[1,2-b]pyridazin-6-ylamino)cyclohexanol]"
15,100 to 500,"CC(CO)CCNc1ccc2ncc(-c3cc4ccccc4s3)n2n1 (centres unmarked) [Compound 138, 4-(3-(benzo[b]thiophen-2-yl)imidazo[1,2-b]pyridazin-6-ylamino)-2-methylbutan-1-ol]"
16,< 100,Oc1cccc2cc(-c3cnc4ccc(N[C@H]5CC[C@H](O)CC5)nn34)sc12 [Compound 77]
17,< 100,"COc1cc2cc(-c3cnc4ccc(NC5CCC[C@H](O)C5)nn34)sc2cc1OC (stereo in doubt) [Compound 174, 3-(3-(5,6-dimethoxybenzo[b]thiophen-2-yl)imidazo[1,2-b]pyridazin-6-ylamino)cyclohexanol]"
18,< 5000,"COc1ccc(Nc2ccc3ncc(-c4cc5cncc(O)c5s4)n3n2)cc1OC [Compound 211, 2-(6-(3,4-dimethoxyphenylamino)imidazo[1,2-b]pyridazin-3-yl)thieno[3,2-c]pyridin-7-ol]"
19,500 to 1000,"O[C@H]1CC[C@H](Nc2ccc3ncc(-c4ccc5cc(F)ccc5c4)n3n2)CC1 [Compound 162, trans-4-(3-(2-fluoronaphthalen-6-yl)imidazo[1,2-b]pyridazin-6-ylamino)cyclohexanol]"
